As usually defined, the half-life is the time needed for the level to fall by half in the phase considered. A high value points to slow loss. What is called AUC(0-inf) is the area under the concentration-time curve extrapolated to infinity. What is called AUC(0-t) is the area under the concentration-time curve up to a stated or last time point. A lower AUC(0-t) goes with low exposure.

Molecules are shown by their SMILES. Read-outs that look alike come from different tables or passages of the source.

Series [1] deals with HCC1806, NCI-N87, BxPC3, Calu3, NCI-H23 (TROP2+), NCI-H23 (parental). As to the kind of experiment: cytotoxic assay, range over the six tumor cell lines. To be noted: Homo sapiens, read-out: IC50 values, range over six cell lines. It is filed as cell-based. How it is done: (§1) Tumor cells were seeded on 96-well plates at the following concentrations: HCC1806 (3,000 cells per well), NCI-N87 (5,000 cells per well), BxPC-3 (2,000 cells per well), Calu-3 (8,000 cells per well), NCI-H23 (TROP2+, 3,000 cells per well), and NCI-H23 (parental, 3,000 cells per well). After overnight incubation, the diluted testing items were added respectively. After 72 h, cell viability was evaluated using a CellTiter-Glo Luminescent Cell Viability Assay (Promega Corp. Madison, WI), following the manufacturer’s instruction.
To evaluate the effect of SKB264 on tumor cell proliferation, in vitro growth inhibition of cancer cell lines was determined by CellTiter-Glo Luminescent Cell Viability Assay. Cancer cell lines, including HCC1806, NCI-N87, BxPC3, Calu3, and NCI-H23 (TROP2+), highly expressed TROP2, while NCI-H23 (parental) was TROP2-negative ( Figure 3 ). […] NCI-H23 (TROP2+) cells were more sensitive to SKB264 than parental cells (TROP2−). […] Taken together, after SKB264 endocytosed through its interaction with TROP2 on cell surface, the releasing free KL610023 can inhibit tumor cell proliferation.

The next series concerns HCC1806 (TROP2+). As to the kind of experiment: cytotoxic assay (CellTiter-Glo, 72 h) HCC1806. To be noted: Homo sapiens. In kind it is cell-based, human. How it is done: as §1
The test system of the next series is NCI-N87 (TROP2+). As to the kind of experiment: cytotoxic assay (CellTiter-Glo, 72 h) NCI-N87. It is filed as cell-based. To be noted: Homo sapiens, read-out: IC50 cell growth inhibition. How it is done:
as §1
Background: In ATP-based viability assays light output follows the ATP content of the culture.

A further series has as its system HCC1806 xenograft. Briefly: PK-PD study, single dose, HCC1806 xenograft. It is filed as in vivo, BALB/c nude mice. To be noted: tumor; payload after single i.v. 3 mg/kg SKB264 (KL610023) or IMMU-132 (SN-38); HCC1806 tumor-bearing mice; mean, n = 5. How it is done:
(§2) Phoenix WinNonlin 8.1 was used to calculate the PK parameters in the non-compartment model, including t 1/2, T max, C max, AUC0-t, and AUC0-∞. […] The half maximal effective concentration (EC50) and half maximal inhibitory concentration (IC50) were calculated using a nonlinear regression model with sigmoidal fitting. The in vitro antitumor activities of drugs were evaluated by a two-tailed paired t-test.

A short description of series [2]: metabolic related experiments (hepatic circulation). To be noted: unlike SN-38.
The subject of another series is NCI-H23(TROP2+). Briefly: cytotoxic assay (CellTiter-Glo, 72 h) NCI-H23 (TROP2+). To be noted: Homo sapiens, read-out: IC50 cell growth inhibition. In kind it is cell-based. How it is done:
as §1

For a further series, the system named is BXPC3 (TROP2+). As to the kind of experiment: cytotoxic assay (CellTiter-Glo, 72 h) BxPC-3. It is filed as cell-based. To be noted: Homo sapiens, read-out: IC50 cell growth inhibition. How it is done:
as §1

Series [3] can be described thus: PK of SKB264 and KL610023 in cynomolgus monkeys (serum). It is filed as in vivo. To be noted: unconjugated KL610023 0.24 mg/kg single i.v. infusion, n = 6, mean ± SD. How it is done:
The PK properties of SKB264 and Tab were determined by ELISA, for which the lower limit of quantitation was 7.813 ng/ml. The serum concentration of KL610023 was measured by a validated liquid chromatography tandem mass spectrometry (LC/MS-MS), for which the lower limit of quantitation was 0.100 ng/ml. A total of 24 cynomolgus monkeys were randomized into four groups (n = 3/sex/group). Groups #1, #2, and #3 were treated with 1, 3, and 10 mg/kg of SKB264, respectively, via 15 min i.v. infusion once. Group #4 received 0.24 mg/kg of unconjugated KL610023 via i.v. infusion once. The serum concentrations of SKB264, Tab, and KL610023 were continually measured up to 672 h post-dose.
as §2

Where [4] appears, read: both sexes, cynomolgus monkey, in vivo, iv.

For the compound `CC[C@@]1(O)C(=O)OCc2c1cc1n(c2=O)Cc2c-1nc1ccccc1c2CCN(C(C)C)S(C)(=O)=O` [KL610023], the IC50 in series [1] is 1.36 to 6 nM; with HCC1806 (TROP2+) (HCC1806 (TROP2+), 72 h, Figure 2D, read-out: IC50 cell growth inhibition) it was 1.5 nM; in the series on HCC1806 (TROP2+) (HCC1806, payload comparison, Figure 7C, duplicates, read-out: IC50 inhibition of proliferation of HCC1806 cells) it was 1.82 nM; in the series with NCI-N87 (TROP2+), 2.01 nM; with NCI-H23(TROP2+), 4.77 nM; with BXPC3 (TROP2+) it was 6 nM. In addition, the “AUC0-∞ of payload” value with HCC1806 xenograft is 1949 ng·h/g. This compound yielded an AUClast of payload with HCC1806 xenograft of 1903 ng·h/g. Also, the hepatic circulation result in series [2] was “no hepatic circulation”. The compound further had a half-life in series [3] (both sexes, cynomolgus monkey, in vivo, iv, 0.24 mg/kg) of 5.7 h. This compound gave a total exposure AUC(0-inf) in series [3] (setting [4]) of 230 ± 43.9 ng·h/mL. Also, the AUC(0-t) in series [3] (setting [4]) is 228 ± 44.2 ng·h/mL. Moreover, the “t 1/2” value in series [3] (0.24 mg/kg) was determined as 5.65 ± 2.53 h.

The record behind these values is paper PMC9817100, “Preclinical profiles of SKB264, a novel anti-TROP2 antibody conjugated to topoisomerase inhibitor, demonstrated promising antitumor efficacy compared to IMMU-132” (Frontiers in Oncology, 2022).
